Results reported in ChEMBL document CHEMBL1201862, “PubChem BioAssay data set” (2004).
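1) Cells in 96-well plates. 2) Compound, 48 h, 5 concentrations. 3) Linear interpolation between surrounding doses. 4) Unreached endpoint = highest concentration. Here, GI50 denotes the concentration required for 50% inhibition of growth.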 Activity calls are given as the source filed them. Rule as the data show it: active = GI50 up to about 1.1 µM and inactive = higher. Peptide text beside a SMILES is read from it. * marks the point of attachment. Boc = CC(C)(C)OC(=O)*

Legend:
Test in all cases: NCI tumour cell line growth inhibition, 48 h
[1] = tested on: NCI-H23
[2] = tested on: TK-10
[3] = tested on: A549
[4] = tested on: NCI/ADR-RES
[5] = tested on: OVCAR-8
[6] = tested on: RXF 393
[7] = tested on: UO-31
[8] = tested on: SF-268
[9] = tested on: UACC-257
[10] = tested on: OVCAR-3
[11] = tested on: MDA-MB-435
[12] = tested on: LOX IMVI
[13] = tested on: HL-60
[14] = tested on: MDA-N
[15] = tested on: K562
[16] = tested on: MOLT-4
[17] = tested on: SK-OV-3
[18] = tested on: SK-MEL-5
[19] = tested on: BT-549
[20] = tested on: CCRF-CEM

| SMILES | GI50 [1] | GI50 [2] | GI50 [3] | GI50 [4] | GI50 [5] | GI50 [6] | GI50 [7] | GI50 [8] | GI50 [9] | GI50 [10] | GI50 [11] | GI50 [12] | GI50 [13] | GI50 [14] | GI50 [15] | GI50 [16] | GI50 [17] | GI50 [18] | GI50 [19] | GI50 [20] |
| --- | --- | --- | --- | --- | --- | --- | --- | --- | --- | --- | --- | --- | --- | --- | --- | --- | --- | --- | --- | --- |
| O=c1ccc(=O)n(-c2ccccc2)[nH]1 | > 100 µM (inactive) | > 100 µM (inactive) | > 100 µM (inactive) | > 100 µM (inactive) | > 100 µM (inactive) | > 100 µM (inactive) | > 100 µM (inactive) | > 100 µM (inactive) | > 100 µM (inactive) | > 100 µM (inactive) | > 100 µM (inactive) | > 100 µM (inactive) | > 100 µM (inactive) | > 100 µM (inactive) | > 100 µM (inactive) | > 100 µM (inactive) | > 100 µM (inactive) | > 100 µM (inactive) | > 100 µM (inactive) | > 100 µM (inactive) |
| Cc1c2ccccc2c(C)n2c1nc1cc(Cl)c(Cl)cc12 | > 10 µM (inactive) | > 10 µM (inactive) | > 10 µM (inactive) | 0.172 µM (active) | > 10 µM (inactive) | > 10 µM (inactive) | – | > 10 µM (inactive) | > 10 µM (inactive) | 0.163 µM (active) | > 10 µM (inactive) | 2.78 µM (inactive) | 3.88 µM (inactive) | > 10 µM (inactive) | > 10 µM (inactive) | 2.93 µM (inactive) | > 10 µM (inactive) | > 10 µM (inactive) | > 10 µM (inactive) | > 10 µM (inactive) |
| COc1ccc(/C=C2\CCS(=O)(=O)c3ccccc3C2=O)cc1OC | 28.8 µM (inactive) | 26.9 µM (inactive) | > 100 µM (inactive) | 28.8 µM (inactive) | 19.1 µM (inactive) | 54.8 µM (inactive) | 31 µM (inactive) | 29.3 µM (inactive) | 35.5 µM (inactive) | 22.7 µM (inactive) | 30.7 µM (inactive) | 19.1 µM (inactive) | 17.4 µM (inactive) | 45.4 µM (inactive) | > 100 µM (inactive) | 46.2 µM (inactive) | 51.3 µM (inactive) | – | 16.6 µM (inactive) | 28.9 µM (inactive) |
| Nc1ccc(S(=O)(=O)NCCS(=O)(=O)O)cc1 | > 100 µM (inactive) | > 100 µM (inactive) | > 100 µM (inactive) | > 100 µM (inactive) | > 100 µM (inactive) | > 100 µM (inactive) | > 100 µM (inactive) | > 100 µM (inactive) | > 100 µM (inactive) | > 100 µM (inactive) | > 100 µM (inactive) | > 100 µM (inactive) | > 100 µM (inactive) | > 100 µM (inactive) | > 100 µM (inactive) | > 100 µM (inactive) | – | > 100 µM (inactive) | > 100 µM (inactive) | > 100 µM (inactive) |
| COc1cc(C(=O)n2c3ccc(Br)cc3c3nc4ccccc4nc32)cc(OC)c1OC | > 100 µM (inactive) | 32.7 µM (inactive) | – | > 100 µM (inactive) | > 100 µM (inactive) | 19.7 µM (inactive) | > 100 µM (inactive) | 60.5 µM (inactive) | > 100 µM (inactive) | > 100 µM (inactive) | > 100 µM (inactive) | > 100 µM (inactive) | > 100 µM (inactive) | > 100 µM (inactive) | > 100 µM (inactive) | 50.8 µM (inactive) | – | > 100 µM (inactive) | 37.3 µM (inactive) | > 100 µM (inactive) |
| COc1ccc2cc(CNCCCCCCCCNCc3ccc4cc(OC)ccc4c3)ccc2c1 | 13.8 µM (inactive) | 3.37 µM (inactive) | 13.5 µM (inactive) | 6.65 µM (inactive) | 6.61 µM (inactive) | 8.07 µM (inactive) | 6.78 µM (inactive) | 4.34 µM (inactive) | 6.76 µM (inactive) | 6.61 µM (inactive) | 4.94 µM (inactive) | 3.94 µM (inactive) | 1.58 µM (inactive) | 7.74 µM (inactive) | 0.975 µM (active) | 2.77 µM (inactive) | – | 11.7 µM (inactive) | 6.67 µM (inactive) | 2.54 µM (inactive) |
| CCOCC(NC(=O)C(CC(C)C)NC(=O)OC(C)(C)C)C(N)=O (stereo not drawn) (Boc-Leu-Ser(Et)-NH2; configuration not given here) | > 100 µM (inactive) | > 100 µM (inactive) | > 100 µM (inactive) | > 100 µM (inactive) | > 100 µM (inactive) | > 100 µM (inactive) | > 100 µM (inactive) | > 100 µM (inactive) | > 100 µM (inactive) | > 100 µM (inactive) | > 100 µM (inactive) | > 100 µM (inactive) | > 100 µM (inactive) | > 100 µM (inactive) | – | > 100 µM (inactive) | > 100 µM (inactive) | > 100 µM (inactive) | > 100 µM (inactive) | 41 µM (inactive) |
| O=P(O)(CN1CCN(CP(=O)(O)c2ccccc2)CCN(CP(=O)(O)c2ccccc2)CC1)c1ccccc1 | > 100 µM (inactive) | 92.5 µM (inactive) | 47.6 µM (inactive) | > 100 µM (inactive) | > 100 µM (inactive) | 80 µM (inactive) | > 100 µM (inactive) | > 100 µM (inactive) | – | 56.6 µM (inactive) | 93.1 µM (inactive) | 67.3 µM (inactive) | > 100 µM (inactive) | 67.8 µM (inactive) | > 100 µM (inactive) | 26.4 µM (inactive) | > 100 µM (inactive) | 69.3 µM (inactive) | > 100 µM (inactive) | > 100 µM (inactive) |
| COCN1C(=O)[C@@H]2C[C@@H](O)CN2C(=O)c2ccccc21 | > 100 µM (inactive) | > 100 µM (inactive) | > 100 µM (inactive) | > 100 µM (inactive) | > 100 µM (inactive) | > 100 µM (inactive) | > 100 µM (inactive) | > 100 µM (inactive) | > 100 µM (inactive) | – | > 100 µM (inactive) | > 100 µM (inactive) | 60.5 µM (inactive) | > 100 µM (inactive) | > 100 µM (inactive) | 61.7 µM (inactive) | > 100 µM (inactive) | > 100 µM (inactive) | > 100 µM (inactive) | > 100 µM (inactive) |
| C=C1CC[C@@H](C)[C@](C)(CCc2ccoc2)C/C=C\C=C/1C(=O)O | 50.4 µM (inactive) | > 100 µM (inactive) | 36.2 µM (inactive) | 25.7 µM (inactive) | 21 µM (inactive) | 29.9 µM (inactive) | 34.1 µM (inactive) | – | 53 µM (inactive) | 19.3 µM (inactive) | 37.6 µM (inactive) | 21.1 µM (inactive) | 16.5 µM (inactive) | 22 µM (inactive) | 32.3 µM (inactive) | 27 µM (inactive) | 69.2 µM (inactive) | 39.6 µM (inactive) | 19.5 µM (inactive) | 28.4 µM (inactive) |
| CCOC(C[Se]CC(OCC)OCC)OCC | 34.2 µM (inactive) | 53.6 µM (inactive) | 75.5 µM (inactive) | 50.9 µM (inactive) | 27.2 µM (inactive) | 28.4 µM (inactive) | 38.6 µM (inactive) | – | 85.1 µM (inactive) | > 100 µM (inactive) | 36.4 µM (inactive) | 22.9 µM (inactive) | 16.8 µM (inactive) | 89.7 µM (inactive) | > 100 µM (inactive) | 37.8 µM (inactive) | 74.6 µM (inactive) | 15.7 µM (inactive) | 31.8 µM (inactive) | 33.4 µM (inactive) |
